Results: ChEMBL document CHEMBL1153076, “Effect of flavonoids on androgen and glucocorticoid receptors based on in vitro reporter gene assay” (Bioorg Med Chem Lett, 2009)
The source made the active and inactive calls.

How the values were obtained:
[1] = biological target: T1, Androgen receptor (Homo sapiens) (UniProt P10275); conditions: MDA-kb2
T1 sequence (whole entry): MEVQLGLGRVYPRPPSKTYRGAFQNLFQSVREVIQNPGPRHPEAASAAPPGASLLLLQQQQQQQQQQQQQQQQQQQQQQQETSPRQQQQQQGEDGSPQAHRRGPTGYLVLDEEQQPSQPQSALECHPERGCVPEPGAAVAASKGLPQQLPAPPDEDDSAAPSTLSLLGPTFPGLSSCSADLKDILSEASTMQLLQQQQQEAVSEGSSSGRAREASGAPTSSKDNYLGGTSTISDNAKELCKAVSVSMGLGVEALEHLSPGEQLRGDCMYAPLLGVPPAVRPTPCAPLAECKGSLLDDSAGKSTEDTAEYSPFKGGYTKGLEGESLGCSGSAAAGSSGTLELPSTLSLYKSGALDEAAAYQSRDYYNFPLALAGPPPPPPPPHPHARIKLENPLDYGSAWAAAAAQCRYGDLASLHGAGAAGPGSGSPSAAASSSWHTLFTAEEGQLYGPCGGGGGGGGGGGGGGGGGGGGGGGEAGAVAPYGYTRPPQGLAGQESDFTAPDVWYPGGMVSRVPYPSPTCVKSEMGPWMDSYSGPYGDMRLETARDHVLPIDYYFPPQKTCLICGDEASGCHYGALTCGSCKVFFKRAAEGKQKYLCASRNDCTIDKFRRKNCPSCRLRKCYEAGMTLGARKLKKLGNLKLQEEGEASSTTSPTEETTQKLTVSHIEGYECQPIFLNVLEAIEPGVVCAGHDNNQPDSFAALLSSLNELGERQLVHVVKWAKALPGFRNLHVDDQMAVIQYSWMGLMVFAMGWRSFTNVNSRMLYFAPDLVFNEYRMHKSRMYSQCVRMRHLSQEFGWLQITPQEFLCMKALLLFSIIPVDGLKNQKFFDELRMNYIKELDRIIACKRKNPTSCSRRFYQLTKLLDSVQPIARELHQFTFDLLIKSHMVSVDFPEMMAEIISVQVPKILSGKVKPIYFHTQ
Description: Agonist activity at androgen receptor in human MDA-kb2 cells assessed as stimulation of luciferase activity at 100 uM by luciferase reporter gene assay

Androgen receptor [2] = biological target: T2, Androgen receptor (Homo sapiens, UniProt P10275); assay: Antagonist activity at androgen receptor in human MDA-kb2 cells assessed as inhibition of DHT-induced luciferase activity by luciferase reporter gene assay
T2 sequence (P10275 whole entry): T1 sequence (whole entry)

[3] = biological target: T3, Glucocorticoid receptor (Homo sapiens) (UniProt P04150); conditions: MDA-kb2
T3 sequence (whole entry): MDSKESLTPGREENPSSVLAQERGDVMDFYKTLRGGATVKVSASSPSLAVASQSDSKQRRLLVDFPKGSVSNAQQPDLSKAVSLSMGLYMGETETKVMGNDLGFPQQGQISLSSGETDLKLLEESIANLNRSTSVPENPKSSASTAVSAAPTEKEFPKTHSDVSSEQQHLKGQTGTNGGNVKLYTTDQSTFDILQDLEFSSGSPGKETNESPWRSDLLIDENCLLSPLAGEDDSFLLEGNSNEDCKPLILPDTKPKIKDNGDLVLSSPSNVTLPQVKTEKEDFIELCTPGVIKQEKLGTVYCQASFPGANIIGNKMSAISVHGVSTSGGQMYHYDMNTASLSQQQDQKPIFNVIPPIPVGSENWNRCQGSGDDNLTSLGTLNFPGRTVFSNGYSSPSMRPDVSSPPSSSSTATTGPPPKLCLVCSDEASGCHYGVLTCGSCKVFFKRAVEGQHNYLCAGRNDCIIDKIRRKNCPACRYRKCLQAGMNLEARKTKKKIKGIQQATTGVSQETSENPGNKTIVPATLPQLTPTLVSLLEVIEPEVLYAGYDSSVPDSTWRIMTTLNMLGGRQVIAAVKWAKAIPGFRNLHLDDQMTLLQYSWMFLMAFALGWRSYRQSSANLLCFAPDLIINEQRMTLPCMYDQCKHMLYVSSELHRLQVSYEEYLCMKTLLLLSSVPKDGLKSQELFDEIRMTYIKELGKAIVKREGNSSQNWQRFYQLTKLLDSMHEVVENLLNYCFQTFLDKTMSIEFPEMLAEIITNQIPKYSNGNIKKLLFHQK
Description: Agonist activity at glucocorticoid receptor in human MDA-kb2 cells assessed as stimulation of luciferase activity at 100 uM by luciferase reporter gene assay

[4] = biological target: T3, Glucocorticoid receptor (Homo sapiens); conditions: MDA-kb2; remark: listed apart in the source
[5] = biological target: T1, Androgen receptor (Homo sapiens); conditions: MDA-kb2; remark: listed apart in the source
Description: Agonist activity at androgen receptor in human MDA-kb2 cells assessed as stimulation of luciferase activity by luciferase reporter gene assay

[6] = biological target: T3, Glucocorticoid receptor (Homo sapiens); assay: Agonist activity at glucocorticoid receptor in human MDA-kb2 cells assessed as stimulation of luciferase activity at 0.03 mM by luciferase reporter gene assay in presence of androgen receptor agonist DHT; assay type: functional, cell-based
[7] = biological target: T3, Glucocorticoid receptor (Homo sapiens); assay: Agonist activity at glucocorticoid receptor in human MDA-kb2 cells assessed as stimulation of luciferase activity by luciferase reporter gene assay in presence of glucocorticoid receptor agonist Dex; assay type: functional, cell-based
Androgen receptor [8] = biological target: T2, Androgen receptor; assay: Antagonist activity at androgen receptor in human MDA-kb2 cells assessed as inhibition of DHT-induced luciferase activity at 100 uM by luciferase reporter gene assay; assay type: functional, cell-based
[9] = biological target: T1, Androgen receptor (Homo sapiens); assay: Ratio of compound EC150 to DHT EC150 for androgen receptor in human MDA-kb2 cells; assay type: cell-based
[10] = biological target: T1, Androgen receptor (Homo sapiens); assay: Ratio of compound EC150 to Dex EC150 for androgen receptor in human MDA-kb2 cells; assay type: cell-based
[11] = biological target: T3, Glucocorticoid receptor (Homo sapiens); assay: Ratio of compound EC150 to DHT EC150 glucocorticoid receptor in human MDA-kb2 cells; assay type: cell-based
[12] = biological target: T3, Glucocorticoid receptor (Homo sapiens); assay: Ratio of compound EC150 to Dex EC150 for glucocorticoid receptor in human MDA-kb2 cells; assay type: cell-based
[13] = biological target: T3, Glucocorticoid receptor (Homo sapiens); assay: Agonist activity at glucocorticoid receptor in human MDA-kb2 cells assessed as stimulation of luciferase activity by luciferase reporter gene assay in presence of androgen receptor agonist DHT; assay type: functional, cell-based

| SMILES | EC150 [4] [µM] | EC150 [5] [µM] | also measured |
| --- | --- | --- | --- |
| O=c1c(O)c(-c2ccccc2)oc2ccccc12 [FLAVONOL] | – | – | EC150 [1]: inactive; IC50 (Androgen receptor [2]): 23.5 µM; EC150 [3]: inactive |
| COc1cccc2oc(-c3ccccc3)cc(=O)c12 | 5.5 | 5.5 | IC50 (Androgen receptor [2]): 8.7 µM |
| O=c1cc(-c2ccccc2)oc2ccc(O)cc12 [6-HYDROXYFLAVONE] | 7.1 | 7.1 | Activity [6]: inactive; EC150 [7]: 4.1 µM; AR antagonist activity at 100 uM (active/inactive) (Androgen receptor [8]): Not Active |
| O=c1cc(-c2ccccc2)oc2ccccc12 [FLAVONE] | 26.1 | 26.1 | IC50 (Androgen receptor [2]): 5.9 µM; IC50 (Androgen receptor [2]; mda-kb2): 5.9 µM |
| O=C1CC(c2ccccc2)Oc2ccccc21 (stereo not drawn) [FLAVANONE] | 380 | 380 | IC50 (Androgen receptor [2]): 20 µM |
| O=c1cc(-c2ccccc2)oc2cccc(O)c12 | 6 | 6 | – |
| COc1ccc2oc(-c3ccccc3)c(O)c(=O)c2c1 | 10.3 | 10.3 | – |
| O=c1cc(-c2ccccc2)oc2cc(O)c(O)c(O)c12 | 18.9 | 18.9 | Activity [7]: Active |
| COc1ccc2c(c1)C(=O)CC(c1ccccc1)O2 (stereo not drawn) | 4.08 | – | IC50 (Androgen receptor [2]): 39.5 µM |
| O=C1c2ccc(O)cc2OC(c2ccc(O)c(O)c2)C1O (stereo not drawn) | – | – | EC150 [1]: inactive; EC150 [3]: inactive |
| O=c1cc(-c2ccccc2)oc2ccc(Cl)cc12 | 12.6 | 12.6 | – |
| O=c1c(O)c(-c2ccc(O)c(O)c2)oc2cc(O)ccc12 | – | – | EC150 [1]: inactive; EC150 [3]: inactive |
| O=c1c(O)c(-c2ccccc2)oc2ccc(O)cc12 | 1.54 | – | Activity [7]: Active |
| O=c1cc(-c2ccccc2)oc2cc(O)ccc12 | 3.1 | 3.1 | – |
| Cc1ccc2oc(-c3ccccc3)cc(=O)c2c1 | 3.6 | 3.6 | – |
| O=c1c(-c2ccc(O)cc2)coc2cc(O)cc(O)c12 [GENISTEIN] | 4.4 | 4.4 | Ratio [9]: 10000; Ratio [10]: 23; Ratio [11]: 10000; Ratio [12]: 23; IC50 (Androgen receptor [2]): 1300 µM |
| O=C1CC(c2ccccc2)Oc2ccc(O)cc21 (stereo not drawn) | – | – | EC150 [1]: inactive; IC50 (Androgen receptor [2]): 3.3 µM; EC150 [3]: inactive |
| COc1ccc2c(c1)OC(c1ccccc1)CC2=O (stereo not drawn) | – | – | EC150 [1]: inactive; EC150 [3]: inactive |
| O=C1C[C@@H](c2ccc(O)cc2)Oc2cc(O)cc(O)c21 | – | – | EC150 [1]: inactive; EC150 [3]: inactive |
| O=c1c(-c2ccc(O)cc2)coc2cc(O)ccc12 [DAIDZEIN] | 10.1 | 10.1 | AR antagonist activity at 100 uM (active/inactive) (Androgen receptor [8]): Not Active |
| C[C@]12CCC(=O)C[C@@H]1CC[C@@H]1[C@@H]2CC[C@]2(C)[C@@H](O)CC[C@@H]12 | 0.0005 | – | – |
| O=c1cc(-c2ccc(O)c(O)c2)oc2cc(O)cc(O)c12 | 18 | 18 | – |
| O=c1c(O)c(-c2ccccc2)oc2cc(O)cc(O)c12 | 633 | 633 | – |
| COc1ccc2c(=O)cc(-c3ccccc3)oc2c1 | 21.9 | 21.9 | – |
| COc1ccc(-c2cc(=O)c3c(O)cc(O)cc3o2)cc1 | 2.1 | 2.1 | – |
| COc1cc(O)c2c(=O)c(-c3ccc(O)cc3)coc2c1 [PRUNETIN] | 3.2 | 3.2 | AR antagonist activity at 100 uM (active/inactive) (Androgen receptor [8]): Not Active |
| COc1ccc2oc(-c3ccccc3)cc(=O)c2c1 | 0.7 | 0.7 | Ratio [9]: 1400; Ratio [10]: 3.6; Ratio [11]: 1400; Ratio [12]: 3.6 |
| O=c1cc(-c2ccccc2)oc2cc(O)cc(O)c12 [CHRYSIN] | 1.5 | 1.5 | Activity [13]: Active; AR antagonist activity at 100 uM (active/inactive) (Androgen receptor [8]): Active |
